From patent US20240415845A1, “Compositions of Iboga Alkaloids and Methods of Treatment” (priority 2022, published 2024)

Tested on: special operations veterans with combat and/or blast exposure
Assay: World Health Organization Disability Assessment Schedule 2.0 (WHODAS 2.0)
Format: in vivo, human
Details: for WHODAS 2.0 Total, effect size D (Cohen's D) / WHODAS 2.0 Total score: all participants; for WHODAS 2.0 Total score: baseline 30.2 ± 14.7, mean ± SD; for WHODAS 2.0 Self Care subscale: baseline 5.2% ± 9.2%; for WHODAS 2.0 Mobility subscale: baseline 14.7% ± 15.7%; for WHODAS 2.0 Interpersonal subscale: baseline 32.3% ± 20.4; for WHODAS 2.0 Community Participation subscale: baseline 35.6% ± 21.1%; for WHODAS 2.0 Cognition subscale: baseline 36.1% ± 14.6%; for WHODAS 2.0 Life Activities subscale: baseline 41.1% ± 24.8%
Description: The pre-specified primary outcome was change in the World Health Organization Disability Assessment Schedule 2.0 (WHODAS) (Gold L. H. et al., J. Am. Acad. Psychiatry Law 42, 9 (2014)) from baseline to post-treatment, with change from baseline to the one-month follow-up a secondary outcome. Additional pre-specified secondary outcomes included post-treatment changes on the Clinician Administered PTSD Scale (CAPS-5; Weathers, F. W. et al., Psychol. Assess., 30, 383-395 (2018)), Montgomery-Åsberg Depression Rating Scale (MADRS; Montgomery, S. A., Br. J. Psychiatry J. Ment. Sci., 134, 382-389 (1979)) and the Hamilton-Anxiety Rating Scale (HAM-A; Bruss, G. S., et al., Psychiatry Res., 53, 191-202 (1994)). […] An additional dose of magnesium was administered approximately 12 hours later. To assess the significance of post-treatment changes, linear mixed effects (LME) models were used for each outcome measure. False Discovery Rate (FDR; Benjamini, Y. et al., J. R. Stat. Soc. Ser. B Methodol., 57, 289-300 (1995)) was applied to correct for multiple comparisons.
With subjects in the fasting state, an intravenous infusion of 1 gram of magnesium sulfate was administered 1-2 hours prior to treatment. […] Medical staff (MD, RN, or EMT) were onsite at a ratio of at least 1 staff per 2 patients throughout treatment for monitoring and management, but no specific coaching or psychological support was provided during treatment.
Post treatment, each subject was assessed four days after treatment, one month after treatment, and, if willing, one year after treatment. The post-treatment assessments conducted at four days and at one month after treatment included neuropsychological testing, measures of PTSD, depression, anxiety, mystical experiences, functional imaging and EEG. Post-treatment assessments conducted at one year after treatment included PTSD, depression, and anxiety measures.
World Health Organization Disability Assessment Scale 2.0 (WHODAS 2.0) was used as a measure of function. WHODAS was used to assess the impact of health conditions across six life domains (cognition, mobility, self-care, interpersonal, life activities, and community participation) and it is sensitive to change over time (Gold, L. H., J. Am. Acad. Psychiatry Law 42, 9 (2014). Each item in the assessment is rated on a scale ranging from no problems to extreme problems (Üstün, T. B. et al., Measuring health and disability: Manual for WHO disability assessment schedule WHODAS 2.0. (World Health Organization, 2010)). To capture inter-individual variability in disability the WHODAS complex scoring method was used. Raw scores were converted to a metric ranging from 0(no disability) to 100 (full disability), by calculating the ratio of the participant's score relative to the maximum possible score in each domain as well as to the total score (Id.). A score of 20%-39% was considered mild, 40%-59% was moderate, 60%-79% was moderate-severe and 80%-100% was severe. Scores from baseline were compared to scores from one-month post treatment.
A measure of disability for health and disability on life functions is the World Health Organization Disability Assessment Schedule 2.0 (WHODAS). The items are designed to be sensitive to change due to a treatment, and the measure assesses disability over the past 30 days. The items measured are cognition, self-care, mobility, getting along. life activity, and participation in society. The WHODAS measure gives a rating of 1 for no disability, 2 for mild disability and 3 for moderate disability. FIG. 7A is a graph showing results from the World Health Organization Disability Assessment Scale 2.0 (WHODAS 2.0) assessment for each subject at baseline (prior to treatment), about one week after treatment, and one month after treatment. The dashed line represents the means of the individual scores. FIG. 7B is a bar graph of self-reported disability using the WHODAS total scores at baseline and one-month after treatment.

In the case of `CCC1CC2CC3c4[nH]c5ccc(OC)cc5c4CCN(C2)C13` (centres unmarked) [ibogaine, Ibogaine], the “WHODAS 2.0 Cognition subscale, effect size D” value (baseline vs one-month) is reported as 2.38, the “WHODAS 2.0 Community Participation subscale, effect size D” value (baseline vs one-month) is reported as 1.78 and the “WHODAS 2.0 Interpersonal subscale, effect size D” value (baseline vs one-month) is reported as 1.63. The “WHODAS 2.0 Life Activities subscale, effect size D” value (baseline vs one-month) was 1.44, the “WHODAS 2.0 Mobility subscale, effect size D” value (baseline vs one-month) was 0.83 and the “WHODAS 2.0 Self Care subscale, effect size D” value (baseline vs one-month) was 0.51. The “WHODAS 2.0 Total, effect size D (Cohen's D)” value (baseline vs one-month post) was 2.20, the “WHODAS 2.0 Total, effect size D (Cohen's D)” value (baseline vs one-week post) was 0.74 and the “WHODAS 2.0 Cognition subscale, effect size D” value (baseline vs post-treatment) was 0.96. The “WHODAS 2.0 Community Participation subscale, effect size D” value (baseline vs post-treatment) was 0.53, the “WHODAS 2.0 Interpersonal subscale, effect size D” value (baseline vs post-treatment) was 0.60 and the “WHODAS 2.0 Life Activities subscale, effect size D” value (baseline vs post-treatment) was 0.48. For the same compound, the “WHODAS 2.0 Mobility subscale, effect size D” value (baseline vs post-treatment) was 0.53, the “WHODAS 2.0 Self Care subscale, effect size D” value (baseline vs post-treatment) was 0.37 and the “self-reported disability WHODAS total score (rating 1 no, 2 mild, 3 moderate disability)” value (one-month post treatment, baseline about 2.5 (FIG. 7B)) was “over 1”. The “WHODAS 2.0 Total score” value (one-month post) was 5.1, the “WHODAS 2.0 Self Care subscale” value (one-month) was 1.0% ± and the “WHODAS 2.0 Mobility subscale” value (one-month) was 1.3% ±. The “WHODAS 2.0 Interpersonal subscale” value (one-month) was 4.8% ±, the “WHODAS 2.0 Community Participation subscale” value (one-month) was 5.9% ± and the “WHODAS 2.0 Cognition subscale” value (one-month) was 5.0% ±. For the same compound, the “WHODAS 2.0 Life Activities subscale” value (one-month) was 9.1% ±, the “WHODAS 2.0 Total score” value (one-week post) was 19.9 and the “WHODAS 2.0 Self Care subscale” value (post-treatment) was 1.9% ±. The “WHODAS 2.0 Mobility subscale” value (post-treatment) was 7.2% ±, the “WHODAS 2.0 Interpersonal subscale” value (post-treatment) was 21.7% ± and the “WHODAS 2.0 Community Participation subscale” value (post-treatment) was 24.7% ±. For the same compound, the “WHODAS 2.0 Cognition subscale” value (post-treatment) was 19.2% ± and the “WHODAS 2.0 Life Activities subscale” value (post-treatment) was 31.6% ±.
